The results in this text go back to PMC4919643, “Intestinally-targeted TGR5 agonists equipped with quaternary ammonium have an improved hypoglycemic effect and reduced gallbladder filling effect” (Scientific Reports, 2016).

Read-outs that look alike come from different tables or passages of the source. A value given as a limit tells only on which side of the number the result lay.

Data set [1] can be described thus: Drug levels in plasma, bile and gallbladder tissue after 3 days oral administration to ob/ob mice. Format: in vivo. The conditions noted are these: male, mouse, after the 3-day gallbladder filling assay, 100 mg/kg p.o. The text has this: Drug levels test in plasma, bile, and gallbladder tissue after 3 days oral administration to ob/ob mice. Plasma, bile, and gallbladder were taken from experiments performed in accordance with the guidelines for the use of experimental animals in the Shanghai Laboratory Animal Administration (Shanghai, China) after three days treatment of 26a to ob/ob mice. Blood samples were collected through cardiac puncture into heparinized tubes, and plasma was harvested by centrifugation. Bile and gallbladder tissue were collected from each mouse after blood withdrawal. To 10 mg of gallbladder was added 100 μL of MeOH, and the mixture was homogenized. A 15 μL aliquot of bile samples was diluted with 100 μL of MeOH and then mixed. Plasma, bile, and tissue homogenate were stored at −20 °C. These samples were protein precipitated with MeCN using clopidogrel as the internal standard, and the supernatant was injected onto a LC-MS/MS system for the quantification of 26a. Chromatographic separation was […]
0.5 mL min−1 using ternary mobile phase: A (H2O with 5 mM ammonium acetate and 0.5% TFA); B(MeCN: H2O = 95:5 with 0.1% TFA ); C (MeOH with 1% TFA). The MS/MS detection was carried out in MRM mode using a positive electrospray ionization […]
Long-term study of 26a in ob/ob mice. Three groups of ob/ob mice (male) was orally […]
At day 0 (before dosing), 4, 8, 12 and 18, non-fasted blood glucose was measured before dosing. Mice were fasted for 6 h after dosing and then fasted blood glucose was measured.
The serum level of HbA1c was measured at day 0 (before dosing) and 18 by Adicon biochemical analyzer. The body weight of each mouse was recorded every day. The triglyceride and total cholesterol level was measured after the final dose.
Statistical analysis. All data were expressed as the mean ± SEM or mean ± SD. For the experiment including multiple time points, one-way ANOVA statistical analysis was used; otherwise, unpaired Student’s t test was used. P < 0.05 was considered to be statistically significant.

The nature of data set [2]: Caco-2 permeability determination. The following applies: human. It is filed as in vitro ADME. On the procedure:
Caco-2 permeability determination. Caco-2 permeability determination was carried out […]
Caco-2 cells were obtained from the ATCC (Cat#HTB-37) and maintained in Dulbecco’s modified Eagle’s Medium containing 10% fetal bovine serum, 1% glutamine, 1% nonessential amino acids, 100 μg/mL streptomycin, and 100 U/mL penicillin.
CO2 and 90% relative humidity environment. Caco-2 cells were passaged every 7 days at a ratio of 1:10. Cells were used between passages 30 and 40. After 21 days of culture, the integrity of the cell monolayer was verified by measuring the transepithelial electrical […]
Drug transport from the apical side to the basolateral side (A-B) and from the basolateral side to the apical side was measured simultaneously under the same condition.
Propranolol and atenolol were used as the […] control, respectively.
Digoxin was used as the positive control for Pgp-mediated drug efflux. In brief, the method was as follows. After washing the monolayer with HBSS three times, the compounds were diluted and added to the appropriate well (pH 6.8 for apical side and pH […]
7.4 for basolateral side). […] Samples were […]
collected from the donor side at 5 and 95 min, and from the receiver side at 35 and 95 min post-incubation. The concentration of samples was measured by LC-MS/MS. The Papp was calculated from the following equation:
Papp = (VA/(SA×T))×([drug]acceptor/ [durg]initial donor )
Where VA is the volume of the acceptor well, SA is the surface area of the membrane, T is the total transport time, [drug]acceptor is the drug level at the acceptor side, and [drug]initial donor is the drug level at the donor side at T = 0. […]

Data set [3] can be described thus: Pharmacokinetics assay of 26a in ob/ob mice (plasma and intestinal tissue). It is filed as in vivo, mouse. On the procedure:
The blood and intestinal tissue samples were collected before dosing or 2, 4, 6, 10, 16, and 24 h after dosing. Density of intestinal tissue was taken as 1 g/ml. Error bar indicates SEM. […]
Pharmacokinetics assay of 26a in ob/ob mice. […]
administered to 12 h-fasted ob/ob mice (n = 3 per time point). Blood and intestinal tissue samples were collected before dosing or 2 h, 4 h, 6 h, 10 h 16 h, 24 h after dosing. Blood samples were centrifuged at 11000 rpm for 5 min to isolate the plasma. 25 μL of the sample was mixed with 75 μL MeOH. After centrifugation at 11000 rpm for 5 mins, the supernatant was analyzed by LC-MS/MS.
The tissues were ground and homogenated with 0.9% NaCl solution (1:4, w/v), and then the homogenates were centrifuged at 12,000 rpm for 10 min at 4 °C. The supernatant was collected, and 100 μL aliquot of supernatant was spiked with 300 μL methanol, and then treated as the same fashion as plasma sample. […]

On to `CN(CC[N+](C)(C)C)C(=O)CCc1cc(Cl)c(Oc2ccsc2C(=O)N2CCN(C3CC3)c3ccccc32)cc1Cl` [Compound 26a], for which the concentration at 3 days in data set [1] (read-out: concentration in gallbladder) amounted to 0.112 ± 0.03 µg/mL; in data set [1] (bile, read-out: concentration in bile), 7.81 ± 1.85 µg/mL; in data set [1] (plasma, read-out: concentration in plasma), 0.018 ± 0.003 µg/mL. For the same molecule, the Papp A→B at 95 min in data set [2] (Caco-2, apical to basolateral side) is 0.6 nm/s. The molecule further came in with a Papp B→A at 95 min in data set [2] (Caco-2, basolateral to apical side) of 8 nm/s. The “time of Cmax in intestinal tissue” value in data set [3] (100 mg/kg p.o. single dose) turned out to be 2 h. The “time of Cmax in plasma” value in data set [3] (100 mg/kg p.o. single dose) is on record as 2 h. Moreover, the maximum concentration (Cmax) in data set [3] (male, mouse, colon, po, 100 mg/kg p.o., at 2 h, tissue density taken as 1 g/ml, read-out: Cmax in colon tissue) was 27 µg/mL; in data set [3] (male, mouse, duodenum, po, 100 mg/kg p.o., at 2 h, tissue density taken as 1 g/ml, read-out: Cmax in duodenum tissue) it was 136 µg/mL; in data set [3] (male, mouse, ileum, po, 100 mg/kg p.o., at 2 h, tissue density taken as 1 g/ml, read-out: Cmax in ileum tissue) it was 331 µg/mL; in data set [3] (male, mouse, jejunum, po, 100 mg/kg p.o., at 2 h, tissue density taken as 1 g/ml, read-out: Cmax in jejunum tissue) it was 92 µg/mL; in data set [3] (male, mouse, plasma, po, 100 mg/kg p.o. single dose, read-out: Cmax in plasma), 0.071 µg/mL. Besides, the concentration at 24 h in data set [3] (male, mouse, intestinal tissue, po, 100 mg/kg p.o. single dose, read-out: level in intestinal tissue at 24 h) is more than 0.8 µg/mL. In addition, in data set [3] (male, mouse, plasma, po, 100 mg/kg p.o. single dose, read-out: drug concentration in plasma after 10 h), the concentration at 10 h was less than 0.01 µg/mL.

By Papp A→B is commonly meant the apparent permeability from the apical to the basolateral side of a cell layer. By Papp B→A is commonly meant how fast a substance crosses the layer from the basolateral side. Usually Cmax stands for the maximum level reached in the sampled fluid or tissue.
